Source: ChEMBL document CHEMBL1909046, “DrugMatrix in vitro pharmacology data”

Legend:
[1] = DRUGMATRIX: Glutamate, NMDA, Phencyclidine radioligand binding (ligand: [3H] TCP); assay type: cell membranes, Rattus norvegicus, Wistar, Cerebral cortex, Membrane; settings: Not Active = under 50% inhibition at 10 µM
[2] = biological target: Glycine receptor (Rattus norvegicus, UniProt P22771+P24524+P07727+P20781); assay type: cell membranes, Wistar, Spinal cord, Membrane; note: in other assays of this panel Not Active means under 50% inhibition at 10 µM
[3] = DRUGMATRIX: GABAA, Chloride Channel, TBOB radioligand binding (ligand: [3H] TBOB); assay type: cell membranes, Rattus norvegicus, Wistar, Cerebral cortex, Membrane; settings: Not Active = under 50% inhibition at 10 µM
[4] = biological target: Vasopressin V1a receptor (Homo sapiens, UniProt P37288); assay type: cell membranes, Membrane; settings: hek293; note: in other assays of this panel Not Active means under 50% inhibition at 10 µM
Chain of Vasopressin V1a receptor (P37288 whole entry): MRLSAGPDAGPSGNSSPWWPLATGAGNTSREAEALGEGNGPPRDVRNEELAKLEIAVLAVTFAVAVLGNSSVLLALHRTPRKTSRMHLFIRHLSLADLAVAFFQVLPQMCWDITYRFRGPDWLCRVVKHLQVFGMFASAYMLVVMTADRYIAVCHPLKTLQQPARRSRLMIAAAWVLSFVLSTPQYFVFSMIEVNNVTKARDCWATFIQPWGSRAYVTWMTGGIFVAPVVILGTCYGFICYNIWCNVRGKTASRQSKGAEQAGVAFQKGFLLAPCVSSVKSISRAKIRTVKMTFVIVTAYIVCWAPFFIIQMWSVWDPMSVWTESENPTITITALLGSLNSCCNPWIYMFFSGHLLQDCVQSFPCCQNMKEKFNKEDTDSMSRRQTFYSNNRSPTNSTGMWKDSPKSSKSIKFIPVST

[5] = biological target: Platelet-activating factor receptor (Homo sapiens, UniProt P25105); assay type: tissue-based; note: in other assays of this panel Not Active means under 50% inhibition at 10 µM
Chain of Platelet-activating factor receptor (P25105 whole entry): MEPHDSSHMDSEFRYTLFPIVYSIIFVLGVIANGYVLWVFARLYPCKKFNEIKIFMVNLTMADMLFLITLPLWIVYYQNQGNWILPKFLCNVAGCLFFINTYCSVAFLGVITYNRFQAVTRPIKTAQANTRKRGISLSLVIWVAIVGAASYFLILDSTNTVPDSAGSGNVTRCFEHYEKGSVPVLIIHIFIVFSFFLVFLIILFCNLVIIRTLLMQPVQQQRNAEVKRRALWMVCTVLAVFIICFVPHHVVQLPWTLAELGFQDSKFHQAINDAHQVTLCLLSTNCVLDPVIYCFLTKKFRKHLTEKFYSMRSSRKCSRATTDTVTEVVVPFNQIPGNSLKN

[6] = biological target: 5-hydroxytryptamine receptor 2B (Homo sapiens, UniProt P41595); assay type: cell membranes, CHO-K1, Membrane; settings: for Ki: read-out: Ki; for all read-outs here: in other assays of this panel Not Active means under 50% inhibition at 10 µM
Chain of 5-hydroxytryptamine receptor 2B (P41595 whole entry): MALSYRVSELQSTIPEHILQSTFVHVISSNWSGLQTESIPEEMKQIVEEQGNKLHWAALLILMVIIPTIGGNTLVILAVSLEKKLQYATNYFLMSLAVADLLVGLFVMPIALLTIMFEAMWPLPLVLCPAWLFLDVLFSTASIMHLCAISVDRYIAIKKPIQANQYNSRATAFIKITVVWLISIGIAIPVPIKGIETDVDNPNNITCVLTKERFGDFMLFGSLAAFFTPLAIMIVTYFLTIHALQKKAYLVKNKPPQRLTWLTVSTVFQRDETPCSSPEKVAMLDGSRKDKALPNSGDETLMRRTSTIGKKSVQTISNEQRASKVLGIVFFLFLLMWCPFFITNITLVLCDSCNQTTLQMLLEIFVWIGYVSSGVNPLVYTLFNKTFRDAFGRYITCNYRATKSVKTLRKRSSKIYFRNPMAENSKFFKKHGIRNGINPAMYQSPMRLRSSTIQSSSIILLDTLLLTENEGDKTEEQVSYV

[7] = biological target: T1, Interstitial collagenase (Homo sapiens, UniProt P03956); experiment: biochemical; assay type: tissue-based, Rheumatoid synovial fibroblasts
T1 sequence (P03956 whole entry): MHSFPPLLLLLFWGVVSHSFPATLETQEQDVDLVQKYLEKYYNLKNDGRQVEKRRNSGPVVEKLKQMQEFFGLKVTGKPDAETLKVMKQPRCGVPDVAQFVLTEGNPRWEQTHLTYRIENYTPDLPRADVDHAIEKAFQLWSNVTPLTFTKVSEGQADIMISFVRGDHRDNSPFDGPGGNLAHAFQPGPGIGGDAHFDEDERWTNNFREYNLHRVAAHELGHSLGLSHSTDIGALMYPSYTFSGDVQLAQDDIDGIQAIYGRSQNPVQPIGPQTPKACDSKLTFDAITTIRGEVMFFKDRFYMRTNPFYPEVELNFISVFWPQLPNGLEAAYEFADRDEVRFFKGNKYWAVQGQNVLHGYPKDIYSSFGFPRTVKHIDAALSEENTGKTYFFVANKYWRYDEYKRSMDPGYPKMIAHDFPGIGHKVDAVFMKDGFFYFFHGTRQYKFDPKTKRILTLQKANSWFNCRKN

Row | Structure (SMILES) | IC50 [1] | Ki [1] | IC50 [2] | IC50 [3] | Ki [3] | IC50 [4] | IC50 [5] | IC50 ([6]; cho-k1) | IC50 [7] | IC50 ([6]; read-out: IC50) [nM] | Ki [6] [nM]
1 | C[C@H]1c2cccc(O)c2C(=O)C2=C(O)[C@]3(O)C(=O)C(C(N)=O)=C(O)[C@@H](N(C)C)[C@@H]3[C@@H](O)[C@@H]21.O [DOXYCYCLINE] | Not Active | Not Active | Not Active | Not Active | Not Active | Not Active | Not Active | Not Active | Not Active |  | 
2 | O=C(CCCN1CC=C(n2c(=O)[nH]c3ccccc32)CC1)c1ccc(F)cc1 [DROPERIDOL] | Not Active | Not Active | Not Active | Not Active | Not Active | Not Active | Not Active |  | Not Active | 1340 | 854
3 | CC(C)[C@H]1C(=O)N2CCC[C@H]2[C@]2(O)O[C@](NC(=O)[C@@H]3C=C4c5cccc6[nH]cc(c56)C[C@H]4N(C)C3)(C(C)C)C(=O)N12 [ERGOCORNINE] | Not Active | Not Active | Not Active | Not Active | Not Active | Not Active | Not Active |  | Not Active | 11 | 6.86
4 | OC(Cn1cncn1)(Cn1cncn1)c1ccc(F)cc1F [FLUCONAZOLE] | Not Active | Not Active | Not Active | Not Active | Not Active | Not Active | Not Active | Not Active | Not Active |  | 
5 | CC(C)C(=O)Nc1ccc([N+](=O)[O-])c(C(F)(F)F)c1 [FLUTAMIDE] | Not Active | Not Active | Not Active | Not Active | Not Active | Not Active | Not Active | Not Active | Not Active |  | 
6 | N=C(N)NCCN1CCCCCCC1 [GUANETHIDINE] | Not Active | Not Active | Not Active | Not Active | Not Active | Not Active | Not Active | Not Active | Not Active |  | 
7 | CC1(C)O[C@@H]2C[C@H]3[C@@H]4CCC5=CC(=O)CC[C@]5(C)[C@@]4(F)[C@@H](O)C[C@]3(C)[C@]2(C(=O)CCl)O1 [HALCINONIDE] | Not Active | Not Active | Not Active | Not Active | Not Active | Not Active | Not Active | Not Active | Not Active |  | 
8 | O=c1[nH]c(=O)n([C@H]2C[C@H](O)[C@@H](CO)O2)cc1I [IDOXURIDINE] | Not Active | Not Active | Not Active | Not Active | Not Active | Not Active | Not Active | Not Active | Not Active |  | 
9 | CC1Cc2ccccc2N1NC(=O)c1ccc(Cl)c(S(N)(=O)=O)c1 (stereo unspecified) [INDAPAMIDE] | Not Active | Not Active | Not Active | Not Active | Not Active | Not Active | Not Active | Not Active | Not Active |  | 
10 | Nc1nc(N)nc(-c2cc(Cl)ccc2Cl)n1.O=C(O)/C=C\C(=O)O [IRSOGLADINE MALEATE] | Not Active | Not Active | Not Active | Not Active | Not Active | Not Active | Not Active | Not Active | Not Active |  | 
11 | CCC(C)n1ncn(-c2ccc(N3CCN(c4ccc(OCC5COC(Cn6cncn6)(c6ccc(Cl)cc6Cl)O5)cc4)CC3)cc2)c1=O (stereo unspecified) [ITRACONAZOLE] | Not Active | Not Active | Not Active | Not Active | Not Active | Not Active | Not Active | Not Active | Not Active |  | 
12 | CCCCN1CCCC[C@H]1C(=O)Nc1c(C)cccc1C [LEVOBUPIVACAINE] | Not Active | Not Active | Not Active | Not Active | Not Active | Not Active | Not Active | Not Active | Not Active |  | 
13 | CCCCc1nc(Cl)c(CO)n1Cc1ccc(-c2ccccc2-c2nnn[nH]2)cc1 [LOSARTAN] | Not Active | Not Active | Not Active | Not Active | Not Active | Not Active | Not Active | Not Active | Not Active |  | 
14 | Sc1ncnc2nc[nH]c12 [MERCAPTOPURINE ANHYDROUS] | Not Active | Not Active | Not Active | Not Active | Not Active | Not Active | Not Active | Not Active | Not Active |  | 
15 | C[C@](N)(Cc1ccc(O)c(O)c1)C(=O)O [METHYLDOPA] | Not Active | Not Active | Not Active | Not Active | Not Active | Not Active | Not Active | Not Active | Not Active |  | 
16 | C[C@]12CCC(=O)C=C1CC[C@@H]1[C@@H]2CC[C@@]2(C)[C@H]1CC[C@]2(C)O [METHYLTESTOSTERONE] | Not Active | Not Active | Not Active | Not Active | Not Active | Not Active | Not Active | Not Active | Not Active |  | 
17 | Cc1ccccc1N1C(=O)c2cc(S(N)(=O)=O)c(Cl)cc2NC1C (stereo unspecified) [METOLAZONE] | Not Active | Not Active | Not Active | Not Active | Not Active | Not Active | Not Active | Not Active | Not Active |  | 
18 | COCCc1ccc(OCC(O)CNC(C)C)cc1 (stereo unspecified) [METOPROLOL] | Not Active | Not Active | Not Active | Not Active | Not Active | Not Active | Not Active | Not Active | Not Active |  | 
19 | CCn1cc(C(=O)O)c(=O)c2cc(F)c(N3CCNCC3)cc21 [NORFLOXACIN] | Not Active | Not Active | Not Active | Not Active | Not Active | Not Active | Not Active | Not Active | Not Active |  | 
20 | NC1=NC(=O)C(c2ccccc2)O1 (stereo unspecified) [PEMOLINE] | Not Active | Not Active | Not Active | Not Active | Not Active | Not Active | Not Active | Not Active | Not Active |  | 
21 | Nc1nc2c(ncn2CCC(CO)CO)c(=O)[nH]1 [PENCICLOVIR] | Not Active | Not Active | Not Active | Not Active | Not Active | Not Active | Not Active | Not Active | Not Active |  | 
22 | C=C(C)C1(O)OC(=O)C=C1OC (stereo unspecified) [PENICILLIC ACID] | Not Active | Not Active | Not Active | Not Active | Not Active | Not Active | Not Active | Not Active | Not Active |  | 
23 | CC1(C)S[C@@H]2[C@H](NC(=O)Cc3ccccc3)C(=O)N2[C@H]1C(=O)O [PENICILLIN G] | Not Active | Not Active | Not Active | Not Active | Not Active | Not Active | Not Active | Not Active | Not Active |  | 
24 | CCCN1C[C@H](CSC)C[C@@H]2c3cccc4[nH]cc(c34)C[C@H]21 [PERGOLIDE] | Not Active | Not Active | Not Active | Not Active | Not Active | Not Active | Not Active |  | Not Active | 76 | 49
25 | C1CCC(C(CC2CCCCN2)C2CCCCC2)CC1 (stereo unspecified) [PERHEXILINE] | Not Active | Not Active | Not Active | Not Active | Not Active | Not Active | Not Active | Not Active | Not Active |  | 
26 | CCOc1ccc(NC(C)=O)cc1 [PHENACETIN] | Not Active | Not Active | Not Active | Not Active | Not Active | Not Active | Not Active | Not Active | Not Active |  | 
27 | CNNCc1ccc(C(=O)NC(C)C)cc1 [PROCARBAZINE] | Not Active | Not Active | Not Active | Not Active | Not Active | Not Active | Not Active | Not Active | Not Active |  | 
28 | CN(C)CCCN1c2ccccc2Sc2ccccc21 [PROMAZINE] | Not Active | Not Active | Not Active | Not Active | Not Active | Not Active | Not Active |  | Not Active | 347 | 221
